From US20230338363A1, “COMBINATION CHEMO-IMMUNOTHERAPY FOR PANCREATIC CANCER USING THE IMMUNOGENIC EFFECTS OF AN IRINOTECAN SILICASOME NANOCARRIER PLUS ANTI-PD-1” (The Regents of the University of California, priority 2020, published 2023)
Where a name gives a salt, the structure may show the parent alone.

Key:
[1] = system: orthotopic KPC tumor; experiment: Efficacy and immune parameters (IVIS, IHC) in orthotopic KPC tumor model; format: in vivo, mouse
Procedure: Panels B and C) IHC analysis to determine CRT (panel B) and LC3B (panel C) expression at the orthotopic tumor site. Imaging intensity was quantitatively expressed as fold increase that was normalized to the saline group. Representative IHC images are shown on the right. Bar is 50 µm. Panel D) Quantitative assessment of HMGB 1 release. The IHC images were analyzed by Aperio ImageScope software to determine protein released from the damaged nuclei, as described in FIG. 22. Data are expressed as mean ± SEM, n=3. *, p<0.05; **, p<0.01; ***, p<0.001 (1-way ANOVA followed by a Tukey’s test).
Additional IHC analysis was undertaken using the tumor samples collected in FIG. 5, panel A. Quantitative assessment of: Panel A) the CD8^+/ FoxP3^+ cell ratio; Panel B), perforin; Panel C) granzyme B; Panel D) IFN-γ production; and Panel E) PD-L1 expression. Representative IHC images appear in FIG. 18, panels A-C. Data are expressed as mean ± SEM, n=3. *, p<0.05; **, p<0.01; ***, p<0.001 (1-way ANOVA followed by a Tukey’s test).
Tumor-bearing mice received IV injection to deliver an IRIN dose of 40 mg/kg (free IRIN or IRIN silicasome) per injection every 3 days for a total of 3 administrations. Control animals received saline only. Animals were sacrificed 72 h after the last injection. To confirm the impact on tumor growth, ex vivo bioluminescence imaging was performed to assess image intensity at the primary and metastatic tumor sites. Primary tumors were fixed in 10% formalin, followed by paraffin embedding and sectioning to provide 4 µm slices for IHC analysis in the UCLA Translational Pathology Core Laboratory (TPCL). The slides were scanned and images were assessed by using Aperio ImageScope software (Leica). Primary antibodies to CD8 (#14-0808-82) and FoxP3 (#13-5773-82) were purchased from ThermoFisher; CRT (ab2907), while antibodies to HMGB1 (ab18256), granzyme B (ab4059), perforin (ab16074) and IFN-γ (ab9657) were purchased from Abcam. The antibody to LC-3 (#0231-100/LC3-5F10) was purchased from Nanotools, while the antibody to PD-L1 (#64988) was purchased from Cell Signaling Technology.

[2] = system: KPC cells; experiment: ER stress: CHOP and cleaved caspase-3 western blotting, total ROS, intracellular Ca2+ flux; format: cell-based, mouse; settings: 24 h
Procedure: Intracellular ROS production was determined by a fluorescence-based ROS Kit (Abcam, ab186027) in KPC cells. This assay measures total ROS species according to vendor’s instructions. This assay is frequently used in cell biology to show the contribution of ROS in the context of ER stress and autophagy^3. Briefly, KPC cells were treated with IRIN (300 µM), OX (500 µM) or TUN (10 µM) for 24 h. Images were captured using a fluorescence microscope. Signal intensity was quantified by Image J software. At least three representative images were analyzed for each treatment. Data represents mean ± SD, n=3. *p<0.05, ***p<0.001, compared to PBS group (1-way ANOVA followed by a Tukey’s test). Bar is 50 µm.
Intracellular Ca^2+ flux was assessed by a Fluo 4 AM assay in KPC cells. The cells were treated with IRIN (300 µM), OX (500 µM) or TUN (10 µM) for 24 h. Images were captured using a fluorescence microscope, followed by data analysis using the Image J software. At least three representative images were analyzed for each treatment. Data represents mean ± SD, n=3. **p<0.01, ***p<0.001, compared to PBS group (1-way ANOVA followed by a Tukey’s test). Bar is 50 µm.
KPC cells were treated with IRIN silicasome at drug dose of 75 µM and 300 µM for 24 hours. PBS and empty silicasome (that is equivalent to drug dose of 300 µM) were included as control. Ca^2+ efflux (panel A) and total ROS (panel B) measurements were performed similar to FIGS. 14 and 15. Data represents mean ± SD, n=3. *p<0.05, **p<0.001, n.s., not significant (1-way ANOVA followed by a Tukey’s test). Panel C) In a separate experiment, KPC cells were seeded in to a 6-well plate, followed by the treatment using silicasome w/wo IRIN (300 µM) for 48 hours. ER marker, CHOP protein, was assayed by western blotting similar to FIG. 2, panel A
Western blotting was also used to detect the ER stress marker, CHOP, and Cleaved Caspase-3 (CC-3). In this case, KPC cells were treated with IRIN at the indicated concentrations (75- 600 µM) for 24 h. In a separate experiment, KPC cells were treated with IRIN (300 µM) and tunicamycin (10 µM) for 4 h. Primary antibodies were purchased from Cell Signaling Technology: β-actin (#3700), vinculin (#13901), CHOP (#2895), and Cleaved Caspase-3 (#9664).

SMILES: CCc1c2c(nc3ccc(OC(=O)N4CCC(N5CCCCC5)CC4)cc13)-c1cc3c(c(=O)n1C2)COC(=O)[C@]3(O)CC [IRIN, Irinotecan hydrochloride trihydrate]
- tumor size by bioluminescence intensity (IVIS) vs saline ([1]; 40 mg/kg IV on days 8, 11, 14, sacrifice day 17): not statistically significant
- IFN-γ production in the TME (IHC) ([1]; 40 mg/kg IV x3): significant increase
- LC3B staining intensity at tumor site (IHC) ([1]; 40 mg/kg IV x3): significantly increased staining intensity
- intracellular Ca2+ release (Fluo-4 AM assay) ([2]; IRIN 300 µM): response profile similar to ROS production
- total ROS production ([2]; IRIN 300 µM): robust generation ROS production
- CHOP expression (immunoblotting) ([2]; IRIN 75-600 µM): sizable and dose-dependent increase in CHOP expression
- cleaved caspase-3 (CC-3) expression ([2]; IRIN 75-600 µM): increased expression of cleaved caspase-3
